Experimental data taken from ChEMBL document CHEMBL5500426, “Directly Suppressing MYC Function with Novel Alkynyl-Substituted Phenylpyrazole Derivatives that Induce Protein Degradation and Perturb MYC/MAX Interaction” (J Med Chem, 2024).
pIC50: −log10 of the molar value. Calls of active or inactive are those of the source. The rule behind the calls is not given here.

Tests used:
[1] = Cytotoxicity against human GES1 cells assessed as inhibition of cell growth incubated for 72 hrs by MTT assay; format: toxicity, cell-based
[2] = biological target: Myc proto-oncogene protein (Homo sapiens) (UniProt P01106); assay: Inhibition of MYC in human PC-3 cells assessed as downregulation of MYC expression at 1 uM incubated for 24 hrs by Western blotting analysis relative to control; format: cell-based
A549 = assay: Antiproliferative activity against human A549 cells assessed as inhibition of cell growth incubated for 72 hrs by MTT assay; format: functional, cell-based; details: A549, 72 h
PC-3 [3] = assay: Antitumor activity against human PC-3 cells xenografted in BALB/C mouse assessed as reduction in tumor weight at ip administrated daily for 21 consecutive days; format: functional, organism-based
[4] = Toxicity in FVB mouse implanted with mouse Myc-CaP cells assessed as histopathological change in kidney at 10 to 50 mg/kg,ip administrated daily for 14 consecutive days by hematoxylin and eosin staining based microscopic analysis; format: organism-based; details: in vivo, dose 10-50 mg/kg
PC-3 [5] = assay: Antitumor activity against human PC-3 cells xenografted in BALB/C mouse assessed as reduction in tumor volume at ip administrated daily for 21 consecutive days; format: functional, organism-based
Myc-CaP [6] = assay: Antitumor activity against mouse Myc-CaP cells implanted in FVB mouse assessed as reduction in tumor volume at ip administrated daily for 14 consecutive days; format: functional, organism-based
[7] = Clearance in Sprague-Dawley rat at 2 mg/kg,iv administration by LC-MS/MS analysis; format: ADME, organism-based; details: in vivo
Myc-CaP [8] = assay: Antitumor activity against mouse Myc-CaP cells implanted in FVB mouse assessed as reduction in tumor weight at ip administrated daily for 14 consecutive days; format: functional, organism-based
[9] = AUC (0 to t) in Sprague-Dawley rat at 2 mg/kg,iv administration by LC-MS/MS analysis; format: ADME, organism-based; details: in vivo
PC-3 [10] = assay: Antitumor activity against human PC-3 cells xenografted in BALB/C mouse assessed as tumor growth inhibition at 75 mg/kg,ip administrated daily for 21 consecutive days relative to control; format: functional; details: read-out: TGI
[11] = biological target: c-Myc/c-Max (Homo sapiens) (UniProt P01106+P61244); assay: Inhibition of MYC/MAX protein-protein interaction in human PC-3 cells at 10 uM incubated for 1 hr by Co-immunoprecipitation based immunoblotting analysis; format: cell-based
HepG2 = assay: Antiproliferative activity against human HepG2 cells assessed as inhibition of cell growth incubated for 72 hrs by MTT assay; format: functional, cell-based; details: HepG2, 72 h
[12] = Toxicity in FVB mouse implanted with mouse Myc-CaP cells assessed as body weight loss at 10 to 50 mg/kg,ip administrated daily for 14 consecutive days; format: organism-based; details: in vivo, dose 10-50 mg/kg
MV4-11 = assay: Antiproliferative activity against human MV4-11 cells assessed as inhibition of cell growth incubated for 72 hrs by MTT assay; format: functional, cell-based; details: MV4-11, 72 h

Sequence of Myc proto-oncogene protein (Homo sapiens) (P01106 whole entry): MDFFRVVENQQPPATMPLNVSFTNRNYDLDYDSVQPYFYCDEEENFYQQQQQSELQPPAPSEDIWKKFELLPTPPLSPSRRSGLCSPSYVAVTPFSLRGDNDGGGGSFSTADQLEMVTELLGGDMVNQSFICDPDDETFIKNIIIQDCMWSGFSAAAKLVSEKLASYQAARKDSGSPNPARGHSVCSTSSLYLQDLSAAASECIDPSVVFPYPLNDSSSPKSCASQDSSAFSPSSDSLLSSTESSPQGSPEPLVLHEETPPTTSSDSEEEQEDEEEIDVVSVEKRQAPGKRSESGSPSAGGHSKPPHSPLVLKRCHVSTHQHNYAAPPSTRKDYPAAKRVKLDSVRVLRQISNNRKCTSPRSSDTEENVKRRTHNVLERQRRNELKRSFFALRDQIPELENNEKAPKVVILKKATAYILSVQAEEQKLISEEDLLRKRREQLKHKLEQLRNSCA
Sequence of c-Myc/c-Max (Homo sapiens) (P01106 whole entry): as above
Sequence of c-Myc/c-Max (Homo sapiens) (P61244 2-160 partner limits assumed): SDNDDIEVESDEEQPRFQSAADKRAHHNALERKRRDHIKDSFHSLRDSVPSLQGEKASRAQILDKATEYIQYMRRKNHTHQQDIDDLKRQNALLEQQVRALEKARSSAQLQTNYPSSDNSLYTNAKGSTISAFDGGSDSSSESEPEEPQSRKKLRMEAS

inhibition [2]: > 50% | pIC50 (A549): 5.91 | clearance [7]: 1.41 L/h/kg | AUC(0-t) [9]: 1.4 µg·h/mL | inhibition [11]: Active | pIC50 (HepG2): 5.96 | pIC50 (MV4-11): 6.05
Structure (SMILES): Oc1c(-c2cc(C(F)(F)F)n[nH]2)ccc(C#CCCN2CCOCC2)c1-c1ccc(Cl)c(C(F)(F)F)c1
IC50 at 72 h [1]: > 100 µM | Activity (PC-3 [3]): Dose-Dependent Effect | Activity [4]: Non-Toxic | Activity (PC-3 [5]): Dose-Dependent Effect | Activity (Myc-CaP [6]): Dose-Dependent Effect | Activity (Myc-CaP [8]): Dose-Dependent Effect | inhibition in vivo at 75 mg/kg (PC-3 [10]): 69% | Activity [12]: Non-Toxic
